# pIC50: −log10 of the molar value.
# How the values were obtained:
# [1] = biological target: Nitric oxide synthase oxygenase [E25A,E26A,E316A] (Bacillus subtilis, UniProt O34453, E25A/E26A/E316A); assay: bBiDomain assay
# Experimental: (§1) Reactions were carried out using the buffered solution reported for the three-component reaction. The bBiDomain reactions included 100 nm bBiDomain and either YumC or FLDR at 1 μm; except for reactions in which YumC concentrations were varied. For inhibition assays, inhibitors were added at 30 μm. Similar to the three-component reaction, bBiDomain reactions were initiated with NADPH at a final concentration of 400 μm, quenched by thermal denaturation, and analyzed by Griess reaction.
# [2] = biological target: Nitric oxide synthase oxygenase [E25A,E26A,I218V,E316A] (Bacillus subtilis, UniProt O34453, E25A/E26A/E316A/I218V); assay: bBiDomain assay
# Experimental: as §1
smiles,measurement,setting,value
Cc1cc(N)nc2ccccc12,pIC50,[1],4.44
same,pIC50,[2],4.27
